Counter-ions that a name gives are not always drawn.
Experiments:
[1] = Bioavailability in male rats; type: in vivo; details: rat, plasma, oral, intravenous 1 or 3 mg/kg, peroral 30 mg/kg, n=3, read-out: bioavailability (BA)
Experimental: (§1) A test compound was administered to male rats intravenously (1 or 3 mg/kg) or perorally (30 mg/kg), and to male beagles intravenously or perorally (3 mg/kg). After administration, blood was collected at designated times, to thereby obtain plasma samples.

[2] = test system: beagles; assay: Toxicity test: single oral administration to dogs; type: in vivo; details: male beagles, single peroral
Experimental: An encapsulated test drug was forcedly administered to beagles, and acute toxicity of the drug was studied.
Compound of Example 34a was singly perorally administered to male beagles at a dose of 30 and 100 mg/kg. […] General conditions of the beagles were observed, and hematologic and blood biochemical tests were carried out.

[3] = target: T1, human GHS-R1a (Homo sapiens, UniProt Q92847); assay: Agonistic activity by use of a cell line stably expressing human GHS-R1a (intracellular calcium increase); type: cell-based; details: hGHS-R1a/CHO cells, percent increase in intracellular calcium vs 100 nM ghrelin; read-out: GHS-R agonistic activity (EC50: nM)
T1 construct: expressed in transfected cells
T1 sequence (Q92847 whole entry): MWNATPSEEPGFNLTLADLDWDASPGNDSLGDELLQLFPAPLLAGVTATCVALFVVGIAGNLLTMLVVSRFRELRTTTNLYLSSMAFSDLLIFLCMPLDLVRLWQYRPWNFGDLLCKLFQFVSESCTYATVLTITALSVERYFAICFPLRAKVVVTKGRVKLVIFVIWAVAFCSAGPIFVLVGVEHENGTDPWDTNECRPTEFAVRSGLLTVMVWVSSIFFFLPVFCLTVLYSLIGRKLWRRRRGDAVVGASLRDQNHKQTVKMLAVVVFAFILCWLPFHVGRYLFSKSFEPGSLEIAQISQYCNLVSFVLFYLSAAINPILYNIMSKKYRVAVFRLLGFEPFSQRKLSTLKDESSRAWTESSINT
Experimental: CHO-K1 cells were transfected with human GHS-R1a genes, to thereby provide cells stably expressing GHS-R1a (hGHS-R1a/CHO), and the agonistic activity of each compound was evaluated by use of the cells based on percent increase in intracellular calcium as an index.
The hGHS-R1a/CHO cells were inoculated at 6×10^4 cells/well in a 96-well plate (Clear bottom/Black plate, product of Corning), and cultured in Ham's F12 medium containing 10% fetal bovine serum at 37° C. and 5% CO2 for 18 hours. After culture, the medium was removed, and then the hGHS-R1a/CHO cells were cultured for two hours in a Hanks' balanced salt solution/HEPES (HBSS/HEPES, 100 μL) containing a calcium fluorescent indicator (4 μM Fluo-3AM, product of Dojin), 2 mM Probenecid, 0.1% Pluronic F-127, and 0.1% BSA, whereby the indicator was incorporated into the cells. After washing the cells, HBSS/HEPES (175 μL/well) containing 2 mM Probenecid and 0.1% BSA was added to the plate, and the fluorescence before and after addition of each test compound was determined by means of FLEXstation (Ex: 485 nm, Em: 525 nm, product of Molecular Devices). Each test compound was multi-fold diluted with dimethyl sulfoxide and then diluted with HBSS/HEPES containing 2 mM Probenecid, 0.04% Pluronic F-127, and 0.1% BSA, to thereby attain a final concentration of interest. The thus-diluted solution (25 μL/well) was added to the wells.
Agonistic activity(%)=(A−B)/(C−D)×100
A: Fluorescence intensity after addition of test compound
B: Fluorescence intensity before addition of test compound
C: Fluorescence intensity after addition of 100 nM ghrelin
D: Fluorescence intensity before addition of ghrelin

[4] = Bioavailability in male beagles; type: in vivo; details: beagle, dog, plasma, po; male beagles (dogs), intravenous or peroral 3 mg/kg, n=3; read-out: bioavailability (BA)
Experimental: as §1

[5] = Distribution in the brain (brain-to-plasma partition coefficient); type: in vivo; details: rat, male rats, intravenous bolus then constant-rate infusion, steady state
Experimental: Under anesthesia, a test drug was intravenously administered to male rats (1 to 4 mg/kg) and then intravenously administered (14 to 95 μg/kg) at a constant rate. At two hours after starting the infusion, when a steady state was thought to have been reached, the whole blood was collected from each rat and the brain was excised. The concentrations of test drug in brain samples and plasma samples were determined using LC-MS/MS, and the brain-to-plasma partition coefficient (Kp value) was calculated (n=6 or 9).

[6] = test system: model rats with IL-1β-induced cachexia; assay: Improvement of cachexia induced by IL-1β; type: in vivo; details: SD rats, rmIL-1β into cerebral ventricle, peroral 100 mg/kg
Excerpt: By use of model rats with IL-1β-induced cachexia, the effects of a test compound on ameliorating reduction in body weight and in food intake were examined.
SD rats (male, 8-week old, 270 to 340 g, Japan Charles River) were conditioned in a cage (one rat/cage), and were allowed water and a diet (CRF-1, product of Oriental Yeast Co., Ltd.) ad libitum. The illumination conditions employed in the house were as follows: 10:30 to 22:30 (dark) and 22:30 to 10:30 (light).
An osmotic pump (Mini-Osmotic Pump Model 2001, product of ALZET, filled with saline) was connected to a canula, and the canula was inserted into the cerebral ventricle of a rat. The rats obtained were conditioned for three days, and the osmotic pump was changed to another osmotic pump filled with recombinant mouse IL-1β (rmIL-1β). By means of the pump, rmIL-1β was continuously injected into the cerebral ventricle ([…]), to thereby induce cachexia. Two days after starting of injection of IL-1β, a test compound dissolved in 0.5% methylcellulose solution was perorally administered to each rat just before switching-off the light. During the period of administration of the test compound, the body weight and the food intake were measured every 24 hours.

[7] = target: T2, CYP3A4 (Homo sapiens, UniProt P08684); assay: CYP3A4 inhibitory activity, human liver microsomes, midazolam hydroxylation; type: in vitro ADME
T2 construct: determined by use of human liver microsomes based on the midazolam hydroxylation activity as an index; from tissue; host or cells: human liver microsomes
T2 sequence (P08684 whole entry): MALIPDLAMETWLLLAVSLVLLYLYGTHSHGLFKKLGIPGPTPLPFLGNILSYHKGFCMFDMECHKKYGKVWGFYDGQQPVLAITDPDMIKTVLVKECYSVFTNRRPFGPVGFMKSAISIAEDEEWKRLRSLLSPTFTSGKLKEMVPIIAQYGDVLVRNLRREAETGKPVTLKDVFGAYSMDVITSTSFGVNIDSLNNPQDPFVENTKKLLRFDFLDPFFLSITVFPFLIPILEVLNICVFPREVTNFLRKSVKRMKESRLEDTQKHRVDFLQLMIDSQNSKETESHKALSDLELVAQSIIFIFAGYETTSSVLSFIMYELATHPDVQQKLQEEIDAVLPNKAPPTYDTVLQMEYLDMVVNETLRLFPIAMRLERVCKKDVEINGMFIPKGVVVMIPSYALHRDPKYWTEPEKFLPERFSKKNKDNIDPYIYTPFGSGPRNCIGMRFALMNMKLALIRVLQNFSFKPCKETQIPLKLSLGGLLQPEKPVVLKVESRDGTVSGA
Experimental: The in vitro CYP3A4 inhibitory activity was determined by use of human liver microsomes based on the midazolam hydroxylation activity as an index, and the Ki values were calculated.

Compound	bioavailability [1] [%]	acute toxicity, general conditions ([2]; 30 mg/kg)	EC50 [3] [nM]	bioavailability [4] [%]	Kp at 2 h [5]	acute toxicity, general conditions ([2]; maximum dose 100 mg/kg)	reduction in body weight caused by IL-1β [6]	reduction in food intake caused by IL-1β [6]	Ki [7] [nM]
CN(C)N(C)C(=O)[C@@]1(Cc2ccccc2)CCCN(C(=O)[C@@H](Cc2c[nH]c3ccccc23)NC(=O)C(C)(C)N)C1 [Anamorelin hydrochloride, anamorelin hydrochloride, reference compound]	21	serious anomalous disorders in general conditions such as vomiting, infrequent pulse, tremble, and disorders in walking	0.15	19	0.42				
CC(C)C[C@@H](NC(=O)C(C)(C)N)C(=O)NC1Cc2cccc(N3CCCC3=O)c2N(Cc2ccsc2)C1=O (stereo partly drawn) [Example 34a, (2R)-2-(2-amino-2-methylpropanamido)-4-methyl-N-[2-oxo-8-(2-oxopyrrolidin-1-yl)-1-(thiophen-3-ylmethyl)-1,2,3,4-tetrahydroquinolin-3-yl]pentanamide hydrochloride]	35		0.38	84	0.06	only slight vomiting	significantly suppressed	significantly suppressed	86000
CCN(CC)c1cccc2c1N(Cc1ccccn1)C(=O)C(NC(=O)[C@@H](CC(C)C)NC(=O)CC(C)(C)N)C2 (stereo partly drawn) [Example 47, (2R)-2-(3-Amino-3-methylbutanamido)-N-[8-(diethylamino)-2-oxo-1-(pyridin-2-ylmethyl)-1,2,3,4-tetrahydroquinolin-3-yl]-4-methylpentanamide hydrochloride]			18.2						
CC(C)C[C@@H](NC(=O)C(C)(C)N)C(=O)NC1Cc2cccc(N3C(=O)CCC3O)c2N(Cc2ccsc2)C1=O (stereo partly drawn) [Example 66, (2R)-2-(2-amino-2-methylpropanamido)-N-(8-(2-hydroxy-5-oxopyrrolidin-1-yl)-2-oxo-1-(thiophen-3-ylmethyl)-1,2,3,4-tetrahydroquinolin-3-yl)-4-methylpentanamide]			0.45						

— patent US8501772B2, “3,8-diaminotetrahydroquinoline derivative” (Zeria Pharmaceutical Co., Ltd., priority 2008, dated 2013)
